Measured values taken from US10159667B2, “Composition containing a DPP-IV inhibitor for preventing or treating renal diseases” (DONG-A ST CO., LTD, priority 2013, dated 2018).
Marks after values point to notes of the source that are not given here.

Key:
[1] = test system: db/db mice; assay: Hepatic steatosis: H&E-stained liver sections; type: in vivo; conditions: 12th week of administration, FIG. 5
From the text: Liver tissues collected from the non-diabetic control group, the diabetic group and the DA1229 administration group were sectioned by a microtome and embedded in paraffin after alcohol dehydration at 12th week of administration. These sections were stained by Hematoxylin-eosin, and then lipid deposition was observed by using a microscope (STM6-LM Olympus NDT Inc, USA) (see FIG. 5).

[2] = test system: non-diabetic renal disease mouse model; assay: Microalbuminuria and nephrin excretion in adriamycin (ADX) non-diabetic renal disease mouse model; type: in vivo, mice; conditions: for urinary excretion of albumin / urinary excretion of nephrin: ADX 13 mg/kg i.v. mice, vs control
Description: Non-diabetic renal diseases occurs via induction of glomerular podocyte damage when injecting adriamycin (hereinafter, ADX) that is an anti-cancer agent. Thirty mice at the age of 6 weeks were divided into 3 groups (n=10/group) after single intravenous injection of 13 mg/kg of ADX. For the first group, the administration of DA1229 was initiated immediately and maintained while renal disease incurred and developed. For the second group, administration of DA1229 was performed 3 weeks after single ADX injection, for the purpose of administering DA1229 after renal disease was progressed to some degree. The third group was set as a control group without any additional action. DA1229 was administered as a mixture with diet at 0.3% (W/W, 300 mg/kg/day) to the first and second groups. Only feed was provided to the control group. Microalbuminuria and nephrin excretion of each group were measured at 5th week of administration.

[3] = test system: db/db mice; assay: Renal fibrosis: mRNA expression of TGF β1, Type IV collagen and PAI-1 by real-time PCR; conditions: 12th week, relative to β-actin, FIG. 10
[4] = test system: db/db mice; assay: Blood lipid concentration in db/db mice; type: in vivo; conditions: 12th week of administration, FIG. 4
Description: In diabetic patients, blood lipids are tend to be increased and lipids are tend to be deposited in liver (i.e. hepatic steatosis) due to failure of lipid metabolism. Following experiment has been conducted to confirm whether DA1229 improves lipid metabolism. […] Concentrations of lipids, that are total cholesterol, triglyceride, HDL-cholesterol and LDL-cholesterol, of plasma of the non-diabetic control group, the diabetic group and the DA1229 administration group were measured at 12th week of administration. Concentration of total cholesterol and triglyceride were measured by using a ELISA reader (Micro-Quant, Bio-Tek Instruments, Colmar, France) after using the GPO-Trinder kit (Sigma, St. Louis, Mo., USA); and HDL-cholesterol and LDL-cholesterol were measured by using a TBA-200FR NEO (Toshiba, Japan).

[5] = test system: db/db mice; assay: Microalbuminuria: 24 h urinary albumin excretion by ELISA; type: in vivo; conditions: FIG. 6
Description: When diabetes is progressed, phenomena of renal glomeruli destruction and protein (albumin) excretion incur, and microalbuminuria is directed to a case when the amount of the excretion is small. Microalbuminuria is one of the initial indices of renal diseases, and the gomeruli destruction becomes more severe as diabetes progresses. Accordingly the amount of protein excretion will increase. […] Microalbuminuria was observed by measuring the amount of urinary excretion of albumin during 24 hours in the non-diabetic control group, the diabetic group and the DA1229 administration group at week 0, 4, 8 and 12 of administration. The amount of albumin excretion was measured by using a ELISA reader (Micro-Quant, Bio-Tek Instruments, Colmar, France) after using the ELISA kit (Shibayagi, Shibukawa, Japan).

[6] = test system: db/db mice; assay: Histological evaluation of renal mesangial expansion (PAS staining); type: in vivo; conditions: 12th week of administration, FIG. 7
From the text: Mesangial expansion incurs in kidney when renal destruction progresses in renal diseases. Therefore, glomerular mesangial expansion in the non-diabetic control group, the diabetic group and the DA1229 administration group was observed. […] Renal glomerular tissues were collected and sectioned by a microtome and embedded in paraffin after alcohol dehydration. The sections were stained by using PAS (periodic acid-Schiff); observed by using a microscope (STM6-LM Olympus NDT Inc, USA) (see FIG. 7B); and scored by a pathologist (see FIG. 7A.)

[7] = test system: db/db mice; assay: Renal nephrin expression by immunostaining; type: in vivo; conditions: FIG. 13
From the text: Nephrin is a protein expressed on cell membrane of podocyte which forms glomerular filtration membrane. Nephrin forms a filtration barrier by binding to adjacent podocyte. When proteinuria incurs due to glomerular damage, nephrin barrier is damaged because nephrin expression in podocyte decreases, and accordingly, urinary excretion of nephrin increases. Therefore, urinary excretion of nephrin and nephrin expression in kidney in the non-diabetic control group, the diabetic group and the DA1229 administration group were observed. […] In addition, kidneys were isolated from each group; renal tissues were separated, immunostained with nephrin-specific antibody, and observed by using a microscope. Result is shown in right-hand side of FIG. 13. It is shown that observed nephrin was few in the diabetic group compared to the non-diabetic control group, but much in the DA1229 administration group.

[8] = test system: db/db mice; assay: Renal fibrosis: immunohistochemistry of TGF β1, Type IV collagen and PAI-1; type: in vivo; conditions: 12th week
From the text: Renal glomerular tissues were collected and sectioned by a microtome and embedded in paraffin after alcohol dehydration. The sections were stained via immunohistochemistry; each of deposited TGF β1, Type IV collagen and PAI-1 in kidney was observed by using a microscope (STM6-LM Olympus NDT Inc, USA) (see FIG. 8); and degree and range of the staining were scored by a pathologist (see FIG. 9).

[9] = test system: podocytes; assay: Nephrin expression in podocytes under glucose and angiotensin II stimuli (western blot); type: cell-based; conditions: 10 nM, 72 hours, 30 mM glucose and 100 nM angiotensin II, FIG. 18
Description: Effects of DA1229, linagliptin, saxagliptin and sitagliptin on nephrin expression under stimuli of glucose and angiotensin II that are same to the stimulation occurring in diabetes were observed below.
Podocytes were cultured for 72 hours in media containing 30 mM of glucose, 100 nM of angiotensin II; and any one of 10 nM of DA1229, 10 nM of linagliptin, 1 nM of saxagliptin and 10 nM of sitagliptin. After that, the media were removed; cells were lysed; and changes of intracellularly expressed nephrin were measured through western blot by using polyclonal antibody (Santa Crúz, SC-19000.)

[10] = test system: db/db mice; assay: Renal lipid metabolism: mRNA expression of ABCA1 and HMG-CoA reductase; type: in vivo; conditions: 12th week, FIGS. 11 and 12
[11] = test system: db/db mice; assay: Urinary nephrin excretion by EIA, normalized by creatinine; type: in vivo; conditions: FIG. 13
From the text: Nephrin is a protein expressed on cell membrane of podocyte which forms glomerular filtration membrane. Nephrin forms a filtration barrier by binding to adjacent podocyte. When proteinuria incurs due to glomerular damage, nephrin barrier is damaged because nephrin expression in podocyte decreases, and accordingly, urinary excretion of nephrin increases. Therefore, urinary excretion of nephrin and nephrin expression in kidney in the non-diabetic control group, the diabetic group and the DA1229 administration group were observed. […] It was then normalized by creatinine excretion, which is proportional to a volume of urination (measured by the modified Jaffe method) and shown in the left-hand side graph in FIG. 13.

[12] = test system: db/db mice; assay: Weight, food intake, water intake, fasting blood glucose, urine output, HbA1c and blood pressure in db/db mice; type: in vivo
Description: 6-week old mice were used. db/m mice were set as the non-diabetic control group (7 for each stage, n=28), and divided db/db mice into the diabetic group (7 for each stage, n=28) and DA1229 administration group (n=8). 0.3% (W/W, 300 mg/kg/day) of DA1229, a DPP-IV inhibitor, was mixed with feed and provided to the DA1229 administration group while only feed was provided to the diabetic group. Weight, food intake, water intake, fasting blood glucose, urine output, hemoglobin A1c value (HbA1c) and blood pressure (i.e. systolic blood pressure, SBP) of the non-diabetic control group (db/m control group) and the diabetic group (db/db) were measured at week 0, 4, 8 and 12 of administration; and that of the DA1229 administration group were measured at week 12. HbA1c was measured by using the DCA 2000+ (Bayer Healthcare, Wuppertal, Germany) Analyzer.

[13] = test system: db/db mice; assay: Plasma creatinine by modified Jaffe method; type: in vivo
[14] = DA1229 0.3% W/W in feed (300 mg/kg/day), wk 12, mean ± SEM
[15] = DA1229 administered for 12 weeks

## CC(C)(C)OC[C@@H]1C(=O)NCCN1C(=O)C[C@H](N)Cc1cc(F)c(F)cc1F [DA1229, (R)-4-{(R)-3-amino-4-(2,4,5-trifluorophenyl)butanoyl}-3-(t-butoxymethyl)piperazin-2-one]
[1]
  lipid deposition of liver tissues: restored to the level of the non-diabetic control group
[2]; first group: DA1229 300 mg/kg/day started with induction of renal disease, FIG. 14A
  urinary excretion of albumin: significantly decreased
[2]; first group: DA1229 300 mg/kg/day started with induction of renal disease, FIG. 14B
  urinary excretion of nephrin: significantly decreased
[2]; second group: DA1229 300 mg/kg/day started 3 weeks after ADX, FIG. 15A
  urinary excretion of albumin: significantly decreased
[2]; second group: DA1229 300 mg/kg/day started 3 weeks after ADX, FIG. 15B
  urinary excretion of nephrin: significantly decreased
[2]; ADX mice, second group, FIG. 15
  effect of decreasing albumin excretion over time: became more significant as time passed
[3]
  renal mRNA expression of PAI-1: markedly decreased
  renal mRNA expression of TGF β1: markedly decreased
  renal mRNA expression of Type IV collagen: markedly decreased
[4]
  plasma LDL-cholesterol concentration: restored to the level of the non-diabetic control group
  plasma total cholesterol concentration: restored to the level of the non-diabetic control group
  plasma triglyceride concentration: restored to the level of the non-diabetic control group
[5]
  microalbuminuria until 4th week: not observed
[5]; vs diabetic group
  amount of urinary excretion of albumin after 4th week: much smaller than that of the diabetic group
[6]
  glomerular mesangial expansion: improved to a level close to the non-diabetic control group
[7]
  nephrin observed in renal tissue (immunostaining): much
[8]; FIGS. 8A and 9
  TGF β1 deposited in kidney (immunohistochemistry): markedly decreased
[8]; FIGS. 8B and 9
  Type IV collagen deposited in kidney (immunohistochemistry): decreased to the level of the non-diabetic control group
[8]; FIGS. 8C and 9
  PAI-1 deposited in kidney (immunohistochemistry): decreased to the level of the non-diabetic control group
[9]
  nephrin expression in podocytes: maintained equally to the control group
[10]
  renal mRNA expression of ABCA1: markedly increased
  renal mRNA expression of HMG-CoA reductase: decreased to the level of the non-diabetic control group
[11]
  content of nephrin in urine: markedly decreased
[12]; [14]
  Daily Water Intake: 8.6 ± 0.4**^,# g
  Fasting Blood Glucose: 466 ± 66 mg/dL
  HbAlc: 8.58 ± 0.79 %
  Urine Output: 1.07 ± 0.29 mL/day
[12]; [15]
  fasting blood glucose compared to the diabetic group: markedly decreased
  urine output compared to the diabetic group: no significant differences
  water intake compared to the diabetic group: markedly decreased
[13]; DA1229 300 mg/kg/day in feed, wk 12, ± SEM
  Plasma Creatinine: 29.0 ± 2.0 µmol/L
[13]; wk 12
  plasma creatinine compared to the diabetic group: markedly decreased

## N[C@@H](CC(=O)N1CCn2c(nnc2C(F)(F)F)C1)Cc1cc(F)c(F)cc1F [sitagliptin, reference compound]
[9]
  nephrin expression in podocytes: almost no difference compared to the group treated only with glucose and angiotensin II
